The values that follow come from publication PMC8915595, “Revisiting the application of Immobilized Artificial Membrane (IAM) chromatography to estimate in vivo distribution properties of drug discovery compounds based on the model of marketed drugs” (ADMET & DMPK, 2020).

Data set [1] can be described thus: IAM chromatography on new IAM.PC.DD2 columns (gradient HPLC, CHI (IAM)). The format is physicochemical. Further details: key to CHI (IAM) “new” / P20511-014-3 CHI (IAM): CHI (IAM) from retention times calibrated to predefined CHI standards. The note with it: for P20511-014-3 CHI (IAM): new IAM.PC.DD2 column batch P20511-014-3, pH 7.4; for R20511-014-3 CHI (IAM): new IAM.PC.DD2 column batch R20511-014-3, pH 7.4. On the procedure:
The IAM binding was measured using IAM.PC.DD2 HPLC columns (Regis Technologies, Inc., IL, USA) with dimensions of 100 x 4.6 mm, particle size 10 μm with 300 Å pore size.
Two batches of IAM.PC.DD2 columns were studied (R20511-014-3 and P20511-014-3) that had been prepared using the new batches of silica support.
The retention times were standardized using the IAM calibration mixture, containing octanophenone, heptanophenone, hexanophenone, valerophenone, butyrophenone, propiophenone, acetophenone, acetanilide and paracetamol. The retention times of the compounds were plotted against the isocratically determined and predefined CHI (IAM) values listed in Table 1. The slope and intercept of the obtained straight line was used to calculate the CHI IAM values of new compounds.

The conditions of data set [2]: human.
The conditions of data set [3]: cited from earlier work; for CHI (IAM) from ref [13]: reference CHI (IAM), old columns.
Data set [4] deals with T1, human serum albumin (HSA) (Homo sapiens, UniProt P02768). Conditions: cited from earlier work.
Data set [5] deals with T1, human serum albumin (HSA). Kind of data set: Protein binding on chemically bonded HSA column (Chiralpak-HSA). The note with it: remeasured in this study, pH 7.4.
Description: Mobile phase A was 50 mM ammonium acetate adjusted to pH 7.4 and mobile phase B was 2-propanol. The flow rate was 1.5 mL/min and the run time was 6 min. The 2-propanol gradient was applied from 0 to 35% from 0 to 3.00 min and kept at 35% until 4.00 min.

T1 sequence (P02768 25-609): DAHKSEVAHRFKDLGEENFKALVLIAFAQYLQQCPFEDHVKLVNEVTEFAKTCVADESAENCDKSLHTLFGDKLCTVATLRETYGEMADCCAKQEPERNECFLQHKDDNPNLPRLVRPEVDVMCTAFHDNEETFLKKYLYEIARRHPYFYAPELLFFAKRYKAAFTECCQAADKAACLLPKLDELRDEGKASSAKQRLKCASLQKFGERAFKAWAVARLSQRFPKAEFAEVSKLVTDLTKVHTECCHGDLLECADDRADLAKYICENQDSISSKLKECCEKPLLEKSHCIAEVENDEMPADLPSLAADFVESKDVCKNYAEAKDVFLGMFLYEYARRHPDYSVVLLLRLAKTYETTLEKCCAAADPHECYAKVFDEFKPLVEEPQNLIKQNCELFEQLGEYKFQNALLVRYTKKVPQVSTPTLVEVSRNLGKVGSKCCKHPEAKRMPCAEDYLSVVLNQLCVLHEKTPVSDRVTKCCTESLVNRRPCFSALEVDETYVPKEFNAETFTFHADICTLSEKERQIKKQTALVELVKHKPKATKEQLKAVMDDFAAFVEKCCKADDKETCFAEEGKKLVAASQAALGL

For the molecule `C[C@H]1C[C@@H]2[C@H]([C@@H](O)C[C@@]3(C)[C@H]2CC[C@]3(O)C(=O)CO)[C@@]2(C)C=CC(=O)C=C12` [Methylprednisolone], in data set [1], the “P20511-014-3 CHI (IAM)” value is reported as 30.77 and the “R20511-014-3 CHI (IAM)” value was 30.91. The “reference log Vdss” value in data set [2] came to 0.16. Moreover, the “CHI (IAM) from ref [13]” value in data set [3] is listed as 32.10. Moreover, the “log K HSA from ref [13]” value in data set [4] is recorded as 0.76. Moreover, the “log K HSA” value in data set [5] was 0.28.
Take `CC(C)(C)NCC(O)COc1cccc2c1CC(O)C(O)C2` (stereo not shown) [Nadolol]: in data set [1], the “P20511-014-3 CHI (IAM)” value amounted to 19.23 and the “R20511-014-3 CHI (IAM)” value is reported as 19.89. In data set [2], the “reference log Vdss” value was -0.33. For the same molecule, the “CHI (IAM) from ref [13]” value in data set [3] is listed as 20.20. The “log K HSA from ref [13]” value in data set [4] is 2.93. Besides, the “log K HSA” value in data set [5] stood at 3.55.
Turning to `Nc1cc(N2CCCCC2)nc(N)[n+]1[O-]` [Minoxidil], in data set [1], the “P20511-014-3 CHI (IAM)” value was found to be 16.08 and the “R20511-014-3 CHI (IAM)” value came to 15.93. Further, the “reference log Vdss” value in data set [2] was -0.04. Further, the “CHI (IAM) from ref [13]” value in data set [3] is given as 19.00. For the same molecule, the “log K HSA from ref [13]” value in data set [4] is 3.16. For the same molecule, the “log K HSA” value in data set [5] came out at 3.41.
Take `CC1=NS(=O)(=O)c2cc(Cl)ccc2N1` [Diazoxide]: in data set [1], the “P20511-014-3 CHI (IAM)” value was 23.44 and the “R20511-014-3 CHI (IAM)” value was 23.39. Besides, the “reference log Vdss” value in data set [2] is recorded as -0.16. In addition, in data set [3], the “CHI (IAM) from ref [13]” value is listed as 24.70. The “log K HSA from ref [13]” value in data set [4] is on record as 5.42. Moreover, in data set [5], the “log K HSA” value stood at 5.58.
In the case of `Cc1cc(C)nc(NS(=O)(=O)c2ccc(N)cc2)n1` [Sulphadimidine], in data set [1], the “P20511-014-3 CHI (IAM)” value turned out to be 11.09 and the “R20511-014-3 CHI (IAM)” value amounted to 10.89. The “reference log Vdss” value in data set [2] was determined as 0.22. Further, the “CHI (IAM)” value in data set [3] (previously published, IAM column manufactured 2004-2012) is listed as 34.6. In addition, the “CHI (IAM) from ref [13]” value in data set [3] was 34.55. The “log K HSA from ref [13]” value in data set [4] is 0.75. The “log K HSA” value in data set [5] was determined as 1.72.
Consider `COC(=O)C1=C(C)NC(C)=C(C(=O)OC(C)C)C1c1cccc2nonc12` (stereo not shown) [Isradipine], for which, in data set [1], the “P20511-014-3 CHI (IAM)” value is reported as 39.16 and the “R20511-014-3 CHI (IAM)” value stood at 39.11. Moreover, in data set [2], the “reference log Vdss” value was determined as 0.13. The “CHI (IAM) from ref [13]” value in data set [3] is on record as 40.00. The “log K HSA from ref [13]” value in data set [4] is given as 2.9. Also, in data set [5], the “log K HSA” value is on record as 3.30.
`O=C1NC(=O)C(c2ccccc2)(c2ccccc2)N1` [Phenytoin]: in data set [1], the “P20511-014-3 CHI (IAM)” value stood at 30.20 and the “R20511-014-3 CHI (IAM)” value was found to be 30.18. Also, the “reference log Vdss” value in data set [2] was 0.03. Further, the “CHI (IAM) from ref [13]” value in data set [3] was 31.60. In addition, in data set [4], the “log K HSA from ref [13]” value is on record as 0.54. In addition, the “log K HSA” value in data set [5] is 0.63.
For the molecule `Cc1ncc([N+](=O)[O-])n1CCO` [Metronidazole], in data set [1], the “P20511-014-3 CHI (IAM)” value is -3.24 and the “R20511-014-3 CHI (IAM)” value is recorded as -2.71. Moreover, in data set [2], the “reference log Vdss” value is -0.25. Moreover, the “CHI (IAM) from ref [13]” value in data set [3] is -3.30. Besides, the “log K HSA from ref [13]” value in data set [4] is recorded as 0.66. For the same molecule, the “log K HSA” value in data set [5] is listed as 0.72.
`NS(=O)(=O)c1cc2c(cc1Cl)NCNS2(=O)=O` [Hydrochlorothiazide]: in data set [1], the “P20511-014-3 CHI (IAM)” value amounted to 13.08 and the “R20511-014-3 CHI (IAM)” value is 13.04. Further, in data set [2], the “reference log Vdss” value is recorded as -0.13. In addition, the “CHI (IAM) from ref [13]” value in data set [3] is 15.90. In data set [4], the “log K HSA from ref [13]” value is reported as 0.92. In addition, the “log K HSA” value in data set [5] was 1.05.
For `CCC1(c2ccccc2)C(=O)NCNC1=O` [Primidone], in data set [1], the “P20511-014-3 CHI (IAM)” value was 10.49 and the “R20511-014-3 CHI (IAM)” value came out at 10.31. Moreover, in data set [2], the “reference log Vdss” value is -0.15. Moreover, the “CHI (IAM) from ref [13]” value in data set [3] is 8.90. In data set [4], the “log K HSA from ref [13]” value is 3.44. In data set [5], the “log K HSA” value amounted to 4.01.
